In ChEMBL document CHEMBL1743141, “Membrane transporters in drug development” (Nat Rev Drug Discov, 2010):
Each block holds one compound with its values, some of them ahead of it.

Assays:
Type in all cases: ADME
[1] = target: T1, ATP-binding cassette sub-family C member 4 (Homo sapiens, UniProt O15439); assay: Inhibitors of transporters of clinical importance in the absorption and disposition of drugs, MRP4
T1 sequence (O15439 whole entry): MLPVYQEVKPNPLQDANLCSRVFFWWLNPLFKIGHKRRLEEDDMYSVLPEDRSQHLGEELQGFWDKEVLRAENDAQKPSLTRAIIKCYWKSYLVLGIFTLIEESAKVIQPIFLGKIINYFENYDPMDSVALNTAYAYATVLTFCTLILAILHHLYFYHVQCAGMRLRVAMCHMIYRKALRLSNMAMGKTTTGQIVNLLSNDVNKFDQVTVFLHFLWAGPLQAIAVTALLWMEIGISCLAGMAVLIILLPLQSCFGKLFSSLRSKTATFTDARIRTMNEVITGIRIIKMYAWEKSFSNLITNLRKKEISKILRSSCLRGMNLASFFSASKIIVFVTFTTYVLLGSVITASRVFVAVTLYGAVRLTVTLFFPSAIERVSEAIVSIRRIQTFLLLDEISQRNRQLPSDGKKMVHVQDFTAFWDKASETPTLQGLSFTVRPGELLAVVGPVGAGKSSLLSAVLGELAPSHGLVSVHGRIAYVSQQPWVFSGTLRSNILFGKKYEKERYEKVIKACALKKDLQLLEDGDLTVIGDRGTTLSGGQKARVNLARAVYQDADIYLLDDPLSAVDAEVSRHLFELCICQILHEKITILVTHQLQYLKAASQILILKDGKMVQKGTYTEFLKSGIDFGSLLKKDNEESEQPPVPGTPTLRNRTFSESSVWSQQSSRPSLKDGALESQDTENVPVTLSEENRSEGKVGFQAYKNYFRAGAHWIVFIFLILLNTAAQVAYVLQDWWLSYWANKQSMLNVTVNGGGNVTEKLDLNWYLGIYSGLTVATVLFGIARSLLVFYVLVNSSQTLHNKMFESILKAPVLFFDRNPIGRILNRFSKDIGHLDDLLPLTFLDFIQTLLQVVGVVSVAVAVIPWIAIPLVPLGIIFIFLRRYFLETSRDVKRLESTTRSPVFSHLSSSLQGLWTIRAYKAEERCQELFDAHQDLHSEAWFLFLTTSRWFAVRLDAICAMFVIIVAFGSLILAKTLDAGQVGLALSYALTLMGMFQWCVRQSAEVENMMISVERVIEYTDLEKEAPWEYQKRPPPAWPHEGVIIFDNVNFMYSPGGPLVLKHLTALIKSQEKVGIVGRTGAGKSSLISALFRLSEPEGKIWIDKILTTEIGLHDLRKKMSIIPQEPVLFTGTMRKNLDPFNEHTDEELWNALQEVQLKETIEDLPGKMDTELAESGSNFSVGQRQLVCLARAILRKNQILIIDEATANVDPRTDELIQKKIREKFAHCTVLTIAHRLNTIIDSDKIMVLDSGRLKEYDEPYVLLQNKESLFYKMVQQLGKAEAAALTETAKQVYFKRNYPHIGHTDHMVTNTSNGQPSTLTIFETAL

[2] = target: ATP-binding cassette sub-family C member 2 (Homo sapiens, UniProt Q92887); assay: Inhibitors of transporters of clinical importance in the absorption and disposition of drugs, MRP2
Sequence of ATP-binding cassette sub-family C member 2 (Q92887 whole entry): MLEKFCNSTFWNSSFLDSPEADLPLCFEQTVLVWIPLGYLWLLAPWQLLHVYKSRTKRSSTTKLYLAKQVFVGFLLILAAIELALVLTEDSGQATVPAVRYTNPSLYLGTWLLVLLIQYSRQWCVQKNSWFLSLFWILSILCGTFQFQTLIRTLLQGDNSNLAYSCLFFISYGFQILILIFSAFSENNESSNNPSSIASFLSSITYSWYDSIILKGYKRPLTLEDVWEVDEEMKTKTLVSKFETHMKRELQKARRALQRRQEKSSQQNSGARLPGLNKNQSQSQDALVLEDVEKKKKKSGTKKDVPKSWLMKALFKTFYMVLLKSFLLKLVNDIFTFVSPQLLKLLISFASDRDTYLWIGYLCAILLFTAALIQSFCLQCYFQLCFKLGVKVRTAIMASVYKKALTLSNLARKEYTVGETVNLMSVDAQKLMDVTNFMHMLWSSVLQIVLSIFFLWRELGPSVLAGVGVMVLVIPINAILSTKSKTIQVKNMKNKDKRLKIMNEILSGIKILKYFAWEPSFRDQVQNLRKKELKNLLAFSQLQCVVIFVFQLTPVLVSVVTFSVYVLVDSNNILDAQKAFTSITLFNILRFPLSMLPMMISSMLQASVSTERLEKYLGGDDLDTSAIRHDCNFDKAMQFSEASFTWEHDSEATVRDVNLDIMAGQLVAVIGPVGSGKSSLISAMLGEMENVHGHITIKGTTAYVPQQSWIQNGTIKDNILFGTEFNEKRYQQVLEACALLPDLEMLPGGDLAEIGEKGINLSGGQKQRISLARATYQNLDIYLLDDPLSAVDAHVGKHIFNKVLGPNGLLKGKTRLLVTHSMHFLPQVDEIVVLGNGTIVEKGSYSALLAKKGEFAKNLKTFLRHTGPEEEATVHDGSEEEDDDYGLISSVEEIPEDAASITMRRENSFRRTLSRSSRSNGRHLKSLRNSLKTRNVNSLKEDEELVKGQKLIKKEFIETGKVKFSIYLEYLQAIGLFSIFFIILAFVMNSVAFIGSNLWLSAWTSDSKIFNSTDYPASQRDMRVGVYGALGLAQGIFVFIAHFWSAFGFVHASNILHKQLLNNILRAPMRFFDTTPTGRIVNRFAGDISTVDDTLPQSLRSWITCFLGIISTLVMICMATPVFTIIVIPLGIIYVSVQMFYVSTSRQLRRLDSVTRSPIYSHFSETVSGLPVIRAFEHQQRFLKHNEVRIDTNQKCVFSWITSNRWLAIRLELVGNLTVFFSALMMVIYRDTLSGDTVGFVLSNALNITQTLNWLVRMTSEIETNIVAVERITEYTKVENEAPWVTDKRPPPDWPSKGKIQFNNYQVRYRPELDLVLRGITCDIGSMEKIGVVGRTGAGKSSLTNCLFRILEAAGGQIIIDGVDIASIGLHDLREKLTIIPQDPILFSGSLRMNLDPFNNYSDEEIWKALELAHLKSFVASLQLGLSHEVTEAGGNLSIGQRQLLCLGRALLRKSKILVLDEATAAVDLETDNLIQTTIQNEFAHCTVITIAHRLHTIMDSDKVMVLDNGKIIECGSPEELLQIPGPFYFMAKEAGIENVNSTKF

[3] = target: ATP-binding cassette sub-family C member 3 (Homo sapiens, UniProt O15438); assay: Inhibitors of transporters of clinical importance in the absorption and disposition of drugs, MPR3
Sequence of ATP-binding cassette sub-family C member 3 (O15438 whole entry): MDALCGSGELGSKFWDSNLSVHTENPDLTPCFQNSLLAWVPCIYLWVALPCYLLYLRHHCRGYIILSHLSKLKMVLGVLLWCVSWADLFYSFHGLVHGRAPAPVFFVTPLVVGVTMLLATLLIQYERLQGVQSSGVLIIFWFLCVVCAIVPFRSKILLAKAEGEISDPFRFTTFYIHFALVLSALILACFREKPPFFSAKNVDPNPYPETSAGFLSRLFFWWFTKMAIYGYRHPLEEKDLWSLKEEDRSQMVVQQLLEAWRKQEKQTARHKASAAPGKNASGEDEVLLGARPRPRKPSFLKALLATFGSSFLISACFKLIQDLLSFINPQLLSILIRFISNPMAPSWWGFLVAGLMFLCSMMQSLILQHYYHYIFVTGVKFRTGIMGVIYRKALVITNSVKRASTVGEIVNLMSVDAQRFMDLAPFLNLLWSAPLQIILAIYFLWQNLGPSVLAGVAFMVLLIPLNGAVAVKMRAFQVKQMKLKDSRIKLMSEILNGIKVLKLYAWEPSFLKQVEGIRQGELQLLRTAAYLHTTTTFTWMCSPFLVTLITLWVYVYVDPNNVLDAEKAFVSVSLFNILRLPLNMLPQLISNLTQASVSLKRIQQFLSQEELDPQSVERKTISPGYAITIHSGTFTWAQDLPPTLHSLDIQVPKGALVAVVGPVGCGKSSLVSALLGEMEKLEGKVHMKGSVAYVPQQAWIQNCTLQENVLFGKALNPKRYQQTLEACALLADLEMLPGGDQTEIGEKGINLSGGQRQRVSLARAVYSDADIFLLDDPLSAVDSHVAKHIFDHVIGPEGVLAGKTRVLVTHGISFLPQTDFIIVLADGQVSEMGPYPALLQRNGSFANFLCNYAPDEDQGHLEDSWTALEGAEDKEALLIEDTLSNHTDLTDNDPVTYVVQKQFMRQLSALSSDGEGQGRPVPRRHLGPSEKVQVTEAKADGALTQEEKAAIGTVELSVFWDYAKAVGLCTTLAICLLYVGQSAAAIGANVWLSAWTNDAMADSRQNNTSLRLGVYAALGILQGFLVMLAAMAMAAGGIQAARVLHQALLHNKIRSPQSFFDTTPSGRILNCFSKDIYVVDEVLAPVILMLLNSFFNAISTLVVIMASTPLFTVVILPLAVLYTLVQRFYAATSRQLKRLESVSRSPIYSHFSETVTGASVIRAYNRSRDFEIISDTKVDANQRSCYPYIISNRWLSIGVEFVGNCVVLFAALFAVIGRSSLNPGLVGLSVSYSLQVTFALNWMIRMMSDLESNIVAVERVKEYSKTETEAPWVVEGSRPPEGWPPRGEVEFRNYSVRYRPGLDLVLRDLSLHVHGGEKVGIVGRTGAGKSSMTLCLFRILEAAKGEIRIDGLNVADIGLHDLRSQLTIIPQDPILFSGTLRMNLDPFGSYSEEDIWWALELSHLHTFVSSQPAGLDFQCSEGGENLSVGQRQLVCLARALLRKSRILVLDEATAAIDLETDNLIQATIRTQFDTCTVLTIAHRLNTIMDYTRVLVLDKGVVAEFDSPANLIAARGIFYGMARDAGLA

[4] = target: T2, Solute carrier family 15 member 2 (Homo sapiens, UniProt Q16348); assay: Inhibitors of transporters of clinical importance in the absorption and disposition of drugs, PEPT2
T2 sequence (Q16348 whole entry): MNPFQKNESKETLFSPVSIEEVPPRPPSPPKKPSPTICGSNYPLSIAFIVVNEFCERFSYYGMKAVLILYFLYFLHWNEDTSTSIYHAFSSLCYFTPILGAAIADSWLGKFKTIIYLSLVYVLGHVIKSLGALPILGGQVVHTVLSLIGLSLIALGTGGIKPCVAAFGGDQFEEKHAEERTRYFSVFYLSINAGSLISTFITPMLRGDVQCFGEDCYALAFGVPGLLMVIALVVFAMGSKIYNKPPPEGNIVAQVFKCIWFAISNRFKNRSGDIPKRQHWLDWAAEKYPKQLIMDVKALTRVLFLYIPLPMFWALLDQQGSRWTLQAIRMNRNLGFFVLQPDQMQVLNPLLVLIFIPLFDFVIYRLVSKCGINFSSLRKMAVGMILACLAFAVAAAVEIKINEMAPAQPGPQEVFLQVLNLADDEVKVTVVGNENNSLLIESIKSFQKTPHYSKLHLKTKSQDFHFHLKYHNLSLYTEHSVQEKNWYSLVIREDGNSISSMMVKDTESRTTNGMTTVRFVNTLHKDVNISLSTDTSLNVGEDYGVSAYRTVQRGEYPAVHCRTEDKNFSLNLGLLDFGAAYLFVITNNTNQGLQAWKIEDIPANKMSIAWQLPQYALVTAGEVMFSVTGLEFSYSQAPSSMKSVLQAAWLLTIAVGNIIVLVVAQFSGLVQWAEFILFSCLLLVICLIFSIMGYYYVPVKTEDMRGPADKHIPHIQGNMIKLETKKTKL

[5] = target: T3, Solute carrier organic anion transporter family member 1B1 (Homo sapiens, UniProt Q9Y6L6); assay: Inhibitors of transporters of clinical importance in the absorption and disposition of drugs, OATP1B1
T3 sequence (Q9Y6L6 whole entry): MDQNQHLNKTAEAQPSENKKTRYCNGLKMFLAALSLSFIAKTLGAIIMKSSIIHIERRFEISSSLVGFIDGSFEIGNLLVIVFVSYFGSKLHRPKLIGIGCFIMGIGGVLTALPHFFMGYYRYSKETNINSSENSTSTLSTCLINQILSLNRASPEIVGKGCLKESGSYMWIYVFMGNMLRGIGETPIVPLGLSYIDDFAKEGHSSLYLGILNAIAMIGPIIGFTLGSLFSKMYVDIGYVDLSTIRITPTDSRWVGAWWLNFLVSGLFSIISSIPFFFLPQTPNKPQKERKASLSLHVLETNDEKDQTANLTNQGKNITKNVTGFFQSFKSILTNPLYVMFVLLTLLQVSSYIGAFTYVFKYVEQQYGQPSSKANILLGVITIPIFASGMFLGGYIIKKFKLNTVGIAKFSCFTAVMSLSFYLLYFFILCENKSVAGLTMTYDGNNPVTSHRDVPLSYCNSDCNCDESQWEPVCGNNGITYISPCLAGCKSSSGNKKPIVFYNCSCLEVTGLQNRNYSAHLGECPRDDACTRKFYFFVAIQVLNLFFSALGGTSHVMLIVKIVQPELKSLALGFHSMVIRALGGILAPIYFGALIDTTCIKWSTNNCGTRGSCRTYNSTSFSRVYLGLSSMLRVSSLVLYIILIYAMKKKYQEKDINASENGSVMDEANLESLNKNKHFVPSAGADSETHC

[6] = target: T4, Solute carrier organic anion transporter family member 1B3 (Homo sapiens, UniProt Q9NPD5); assay: Inhibitors of transporters of clinical importance in the absorption and disposition of drugs, OATP1B3
T4 sequence (Q9NPD5 whole entry): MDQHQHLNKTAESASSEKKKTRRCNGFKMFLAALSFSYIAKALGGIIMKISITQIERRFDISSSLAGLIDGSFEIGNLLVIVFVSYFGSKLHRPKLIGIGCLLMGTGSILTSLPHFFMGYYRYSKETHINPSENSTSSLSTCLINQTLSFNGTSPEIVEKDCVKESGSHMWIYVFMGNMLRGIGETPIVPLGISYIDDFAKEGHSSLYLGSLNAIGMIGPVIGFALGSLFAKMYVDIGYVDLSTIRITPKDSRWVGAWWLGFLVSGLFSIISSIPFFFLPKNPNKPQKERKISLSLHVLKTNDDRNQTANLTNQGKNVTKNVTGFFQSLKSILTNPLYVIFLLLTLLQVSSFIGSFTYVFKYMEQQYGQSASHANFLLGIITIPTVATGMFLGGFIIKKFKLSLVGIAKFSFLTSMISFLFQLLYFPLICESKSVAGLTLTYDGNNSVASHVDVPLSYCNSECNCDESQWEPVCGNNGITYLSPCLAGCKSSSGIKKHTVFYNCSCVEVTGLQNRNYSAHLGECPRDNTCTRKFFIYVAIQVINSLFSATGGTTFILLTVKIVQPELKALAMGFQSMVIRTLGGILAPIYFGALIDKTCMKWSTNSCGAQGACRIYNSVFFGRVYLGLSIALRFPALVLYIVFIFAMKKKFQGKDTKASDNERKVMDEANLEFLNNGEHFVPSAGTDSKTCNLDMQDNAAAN

[7] = target: T5, Solute carrier organic anion transporter family member 1A2 (Homo sapiens, UniProt P46721); assay: Inhibitors of transporters of clinical importance in the absorption and disposition of drugs, OATP1A2
T5 sequence (P46721 whole entry): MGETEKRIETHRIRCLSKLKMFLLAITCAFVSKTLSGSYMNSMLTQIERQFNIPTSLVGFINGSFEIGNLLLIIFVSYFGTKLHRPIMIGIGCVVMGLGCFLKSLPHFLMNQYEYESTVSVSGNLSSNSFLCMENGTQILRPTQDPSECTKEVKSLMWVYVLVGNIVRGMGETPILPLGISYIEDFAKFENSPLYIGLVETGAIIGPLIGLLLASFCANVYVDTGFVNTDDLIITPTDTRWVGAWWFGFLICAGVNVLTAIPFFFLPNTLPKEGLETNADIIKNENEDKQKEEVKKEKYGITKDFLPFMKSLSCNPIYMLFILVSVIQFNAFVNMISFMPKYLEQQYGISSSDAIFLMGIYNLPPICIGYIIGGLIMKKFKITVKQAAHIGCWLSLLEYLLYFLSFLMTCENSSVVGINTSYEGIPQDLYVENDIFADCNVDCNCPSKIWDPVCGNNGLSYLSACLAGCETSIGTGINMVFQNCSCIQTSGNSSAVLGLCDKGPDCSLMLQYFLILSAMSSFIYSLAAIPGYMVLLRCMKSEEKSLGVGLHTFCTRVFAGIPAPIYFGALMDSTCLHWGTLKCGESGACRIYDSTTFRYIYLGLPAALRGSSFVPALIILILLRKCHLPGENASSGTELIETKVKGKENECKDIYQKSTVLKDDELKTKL

[8] = target: T6, Solute carrier family 22 member 6 (Homo sapiens, UniProt Q4U2R8); assay: Inhibitors of transporters of clinical importance in the absorption and disposition of drugs, OAT1
T6 sequence (Q4U2R8 whole entry): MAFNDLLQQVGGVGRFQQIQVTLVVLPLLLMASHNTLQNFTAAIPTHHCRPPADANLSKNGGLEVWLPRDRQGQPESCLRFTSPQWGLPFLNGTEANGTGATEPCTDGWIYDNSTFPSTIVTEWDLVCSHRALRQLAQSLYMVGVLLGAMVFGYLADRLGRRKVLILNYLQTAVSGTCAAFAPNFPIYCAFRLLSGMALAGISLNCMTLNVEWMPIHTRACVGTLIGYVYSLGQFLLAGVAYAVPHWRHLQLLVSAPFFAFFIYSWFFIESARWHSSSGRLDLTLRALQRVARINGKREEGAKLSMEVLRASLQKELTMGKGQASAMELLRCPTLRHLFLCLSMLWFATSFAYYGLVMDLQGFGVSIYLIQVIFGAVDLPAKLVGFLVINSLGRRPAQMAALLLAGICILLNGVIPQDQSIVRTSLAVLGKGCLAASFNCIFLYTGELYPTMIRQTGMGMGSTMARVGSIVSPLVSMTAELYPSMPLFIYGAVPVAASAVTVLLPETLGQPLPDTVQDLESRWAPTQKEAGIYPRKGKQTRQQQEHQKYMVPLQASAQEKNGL

[9] = target: T7, Organic anion transporter 3 (Homo sapiens, UniProt Q8TCC7); assay: Inhibitors of transporters of clinical importance in the absorption and disposition of drugs, OAT3
T7 sequence (Q8TCC7 whole entry): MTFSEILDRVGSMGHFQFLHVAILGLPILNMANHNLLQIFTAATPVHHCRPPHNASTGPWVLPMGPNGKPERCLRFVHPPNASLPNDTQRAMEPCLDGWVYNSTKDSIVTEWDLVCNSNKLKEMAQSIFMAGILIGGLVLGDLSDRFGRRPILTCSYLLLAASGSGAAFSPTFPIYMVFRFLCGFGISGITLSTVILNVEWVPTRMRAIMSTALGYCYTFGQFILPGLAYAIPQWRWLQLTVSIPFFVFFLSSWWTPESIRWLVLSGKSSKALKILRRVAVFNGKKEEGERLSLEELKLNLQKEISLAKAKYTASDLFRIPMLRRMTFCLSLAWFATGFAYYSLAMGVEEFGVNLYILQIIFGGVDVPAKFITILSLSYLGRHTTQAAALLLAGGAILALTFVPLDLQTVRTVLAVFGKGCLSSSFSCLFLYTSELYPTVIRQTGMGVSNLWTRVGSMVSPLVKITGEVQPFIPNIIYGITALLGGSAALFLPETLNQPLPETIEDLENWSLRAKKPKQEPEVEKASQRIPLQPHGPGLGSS

Compound: Cc1ccc(-c2cc(C(F)(F)F)nn2-c2ccc(S(N)(=O)=O)cc2)cc1 [CELECOXIB]
Activity [1]: transporter inhibitor

Compound: O=C(O)Cc1ccccc1Nc1c(Cl)cccc1Cl [DICLOFENAC]
Activity [1]: transporter inhibitor

Compound: Nc1nc(=O)n([C@@H]2CS[C@H](CO)O2)cc1F [EMTRICITABINE]
Activity [2]: transporter inhibitor
Activity [3]: transporter inhibitor

Compound: CO[C@@H]1[C@@H](OC(N)=O)[C@@H](O)[C@H](Oc2ccc3c(O)c(NC(=O)c4ccc(O)c(CC=C(C)C)c4)c(=O)oc3c2C)OC1(C)C [NOVOBIOCIN]
Activity [8]: transporter inhibitor
Activity [9]: transporter inhibitor

Now from value to compound:

Activity [4]: transporter inhibitor
Compound: CCC(=O)O[C@@H](O[P@](=O)(CCCCc1ccccc1)CC(=O)N1C[C@H](C2CCCCC2)C[C@H]1C(=O)O)C(C)C [FOSINOPRIL]

Activity [5]: transporter inhibitor
Activity [6]: transporter inhibitor
Activity [7]: transporter inhibitor
Compound: Cc1cccc(C)c1OCC(=O)N[C@@H](Cc1ccccc1)[C@@H](O)C[C@H](Cc1ccccc1)NC(=O)[C@H](C(C)C)N1CCCNC1=O [LOPINAVIR]

Activity [9]: transporter inhibitor
Compound: CCCN(CCC)S(=O)(=O)c1ccc(C(=O)O)cc1 [PROBENECID]

Activity [4]: transporter inhibitor
Compound: C[C@H](CSC(=O)c1ccccc1)C(=O)N1C[C@@H](Sc2ccccc2)C[C@H]1C(=O)O [ZOFENOPRIL]
